# Source: publication PMC12751000, “Dual Agonist/Antagonist Modulation of α9-Containing Nicotinic Acetylcholine Receptors by 2‑Ammoniumethyl Ethers of Stilbenol and Stilbenol Analogues” (Journal of Medicinal Chemistry, 2025)
# “Also recorded” adds a separate entry of the source. Where two headings read alike, the source gives them in different places. Where a SMILES comes first, the peptide text is derived from it. Bridges are numbered along the chain shown (N, C = ends).
# Legend:
# [1] = system: chick α7 nAChRs; conditions: cited from earlier work
# [2] = target: α7-nAChR; conditions: read-out: α7-nAChR affinity (Ki); ref: previously reported, citation number not given; cited from earlier work
# [3] = system: BzATP-induced release of IL-1β from human monocytic THP-1 cells; experiment: BzATP-induced IL-1β release by LPS-primed human monocytic THP-1 cells (ELISA); type: cell-based; conditions: for Effect on the inhibitory effect of ACh on BzATP-induced IL-1β release: LPS 1 μg/mL 5 h, BzATP 100 μM 40 min; for Effect on BzATP-induced IL-1β release in the absence of ACh: LPS-primed THP-1
# Experimental: THP-1 cells were primed with lipopolysaccharide (LPS; 1 μg/mL, 5 h) followed by stimulation with the P2X7 receptor agonist BzATP (2′/3′-O-(4-benzoylbenzoyl)-adenosine-5′-triphosphate, tri(triethylammonium) salt) for 40 min to induce IL-1β release, which was quantified by ELISA.
# Experiments on human monocytic THP-1 cells (German Collection of Microorganisms and Cell Cultures, Braunschweig, Germany, Cat# ACC16) were performed as described before. […] The supernatants were collected and stored for later IL-1β measurements using the Human IL-1β/IL-1F2 DuoSet ELISA from R&D Systems (Minneapolis MN, USA, Cat# DY201). Cell viability was assessed by measuring lactate dehydrogenase (LDH) activity in the supernatants using the CytoTox 96 Non-Radioactive Cytotoxicity Assay (Promega, Madison WI, USA; Cat# G1780). LDH activities were expressed as a percentage of total LDH activity from lysed control cells. Data on the BzATP-induced IL-1β release and LDH activity were analyzed using SPSS (Version 29.0.2.0, IBM, Armonk, NY, United States) and visualized using Inkscape version 0.48.5 r10040 (Free and Open Source Software licensed under the GPL). The data were analyzed first by the Friedman test.
# [4] = system: hα7; conditions: ref: more recent studies, citation number not given, cited from earlier work
# [5] = target: T1, hα9α10 nAChRs (Homo sapiens, UniProt Q9GZZ6+Q9UGM1); experiment: Two-electrode voltage clamp, inhibition of ACh-evoked currents at hα9α10 nAChRs expressed in Xenopus laevis oocytes; type: cell-based
# T1 construct: host or cells: Xenopus laevis oocytes, cRNA-injected (α9:α10 cRNA ratio 1:1)
# Source text: (§1) The protocols were approved by the Animal Ethics Committees of the Victor Chang Cardiac Research Institute, Sydney, and the University of Wollongong (project number AE 20/17). Human α9 and α10 nAChR clones were obtained from OriGene (Rockville, MD, USA) and subcloned into the pT7TS vector. The human α7 nAChR clone, in the plasmid pMXT, was kindly provided by J. Lindstrom (University of Pennsylvania, USA). Constructs of human nAChR subunits were linearized and used for in vitro cRNA transcription with the SP6/T7 mMessage mMachine transcription kit (AMBION, Forster City, CA, USA).
# (§2) The cRNA concentration was verified spectrophotometrically and by gel electrophoresis.
# (§3) Electrophysiological recordings were conducted 2–5 days after cRNA injection using a HiClamp automated two-electrode voltage-clamp screening system (MultiChannel Systems GmbH, Reutlingen, Germany) with a holding potential of –80 mV. To prevent the activation of endogenous Ca^2+-activated chloride channels due to the Ca^2+ permeability of α9-containing nAChRs, oocytes were preincubated with 100 μM BAPTA-AM for approximately 3 h.
# For concentration–response experiments assessing modulation of ACh-evoked responses, oocytes were initially superfused with ND96 or ND115 solution, depending on the receptor subtype. […] After ACh application, a 3 min washout was performed. Oocytes were then incubated with the test compound for 5 min, followed by coapplication of the compound and ACh in a continuously flowing bath solution. All compounds were prepared in ND96 or ND115 with 0.1% bovine serum albumin (BSA).
# [6] = target: T2, hα7 nAChRs (Homo sapiens, UniProt P36544); experiment: Two-electrode voltage clamp, inhibition of ACh-evoked currents at hα7 nAChRs in Xenopus laevis oocytes; type: cell-based
# T2 construct: host or cells: Xenopus laevis oocytes, cRNA-injected (10 ng)
# [7] = target: T3, hα9 nAChRs (Homo sapiens, UniProt Q9UGM1); experiment: Two-electrode voltage clamp, compound-evoked currents at hα9 nAChRs in Xenopus laevis oocytes; type: cell-based; conditions: compound applied alone
# T3 construct: host or cells: Xenopus laevis oocytes, cRNA-injected
# [8] = target: T3, hα9 nAChRs; experiment: Two-electrode voltage clamp, inhibition of ACh-evoked currents at hα9 nAChRs in Xenopus laevis oocytes; type: cell-based
# [9] = target: T1, hα9α10 nAChRs; experiment: Two-electrode voltage clamp, compound-evoked currents (compound applied alone) at hα9α10 nAChRs in Xenopus laevis oocytes; type: cell-based; conditions: compound applied alone (300 pM to 30 μM), normalized to response at highest concentration
# Source text: as §1, §2, §3
# Concentration–response experiments assessing compound-evoked currents were performed by initially superfusing α9-containing nAChRs oocytes with ND115 solution. Test compounds were then applied at concentrations ranging from 300 pM to 30 μM, followed by a 3 min washout period.
# [10] = target: T2, hα7 nAChRs; experiment: Two-electrode voltage clamp, compound-evoked currents at hα7 nAChRs in Xenopus laevis oocytes; type: cell-based; conditions: compound applied alone
# Experimental: Additionally, five compounds of the series were tested on the homomeric hα7 and hα9 nAChRs.
# as §1, §2, §3
# [11] = target: T1, hα9α10 nAChRs; experiment: cell-based
# T3 sequence (Q9UGM1 26-479 limits assumed): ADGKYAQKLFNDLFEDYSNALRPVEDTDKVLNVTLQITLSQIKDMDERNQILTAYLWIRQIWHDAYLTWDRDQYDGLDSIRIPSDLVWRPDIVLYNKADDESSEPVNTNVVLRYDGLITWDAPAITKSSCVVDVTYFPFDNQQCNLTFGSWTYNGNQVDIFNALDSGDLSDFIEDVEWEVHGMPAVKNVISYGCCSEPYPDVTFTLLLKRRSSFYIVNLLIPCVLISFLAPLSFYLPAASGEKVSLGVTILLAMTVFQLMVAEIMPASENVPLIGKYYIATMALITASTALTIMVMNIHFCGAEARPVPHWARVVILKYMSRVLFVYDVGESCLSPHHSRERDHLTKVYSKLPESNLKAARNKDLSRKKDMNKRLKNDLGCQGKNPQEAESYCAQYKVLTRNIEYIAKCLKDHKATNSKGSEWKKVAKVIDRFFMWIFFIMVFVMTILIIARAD
# T1 sequence (Q9UGM1 26-479 limits assumed): as above
# T1 sequence (Q9GZZ6 25-450): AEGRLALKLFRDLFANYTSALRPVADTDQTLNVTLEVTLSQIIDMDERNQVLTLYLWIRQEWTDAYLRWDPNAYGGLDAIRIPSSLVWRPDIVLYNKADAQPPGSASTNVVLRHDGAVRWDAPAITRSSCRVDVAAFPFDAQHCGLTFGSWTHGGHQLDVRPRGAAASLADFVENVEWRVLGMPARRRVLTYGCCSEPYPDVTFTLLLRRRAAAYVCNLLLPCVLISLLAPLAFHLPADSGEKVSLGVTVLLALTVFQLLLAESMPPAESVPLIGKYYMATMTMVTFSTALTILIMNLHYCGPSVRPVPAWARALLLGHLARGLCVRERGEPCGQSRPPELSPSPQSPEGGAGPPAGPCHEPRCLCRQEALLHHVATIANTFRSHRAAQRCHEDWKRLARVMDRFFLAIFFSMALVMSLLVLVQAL
# T2 sequence (P36544 23-502): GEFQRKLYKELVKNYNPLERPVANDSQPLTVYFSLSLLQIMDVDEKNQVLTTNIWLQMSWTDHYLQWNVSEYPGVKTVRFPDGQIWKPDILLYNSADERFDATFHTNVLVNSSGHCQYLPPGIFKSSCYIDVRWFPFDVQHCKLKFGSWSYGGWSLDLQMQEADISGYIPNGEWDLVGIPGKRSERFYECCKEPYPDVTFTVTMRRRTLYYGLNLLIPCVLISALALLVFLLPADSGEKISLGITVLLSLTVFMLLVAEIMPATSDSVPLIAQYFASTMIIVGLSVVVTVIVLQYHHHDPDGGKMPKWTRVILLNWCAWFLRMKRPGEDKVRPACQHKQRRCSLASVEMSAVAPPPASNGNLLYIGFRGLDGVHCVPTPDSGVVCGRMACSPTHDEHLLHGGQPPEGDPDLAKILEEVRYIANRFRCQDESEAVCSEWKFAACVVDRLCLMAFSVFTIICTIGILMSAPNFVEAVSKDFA
smiles,measurement,setting,value
"CC[N+](CC)(CC)CCOc1ccc(/C=C/c2ccccc2)cc1 [Compound 1, 2-triethylammonium ethyl ether of 4-stilbenol]",IC50,"[1]; chick α7, 100 μM ACh, ref: citation number not given",0.09 to 0.11 µM
same,Currents evoked when applied alone,"[1]; wild-type chick α7 nAChRs, ref: previous findings, citation number not given",did not evoke currents
same,Ki,[2],0.104 µM
same,Effect on the inhibitory effect of ACh on BzATP-induced IL-1β release,[3]; compound 100 pM + ACh 10 μM,efficiently antagonized the inhibitory effect of ACh
same,Effect on BzATP-induced IL-1β release in the absence of ACh,[3]; compound 100 pM,only slightly reduced
same,Effect on the inhibitory effect of ACh on BzATP-induced IL-1β release,[3]; compound 100 nM + ACh 10 μM,efficiently antagonized the inhibitory effect of ACh
same,Effect on BzATP-induced IL-1β release in the absence of ACh,[3]; compound 100 nM,only slightly reduced; also recorded: failed to reduce IL-1β release
same,IC50,[4]; 200 μM ACh,0.041 µM
same,IC50,[4]; 1 mM ACh,1.99 µM
"C[N+](C)(CCOc1ccc(COc2ccccc2)cc1)C1CCCCC1.[I-] [Compound 22, N,N-Dimethyl-N-(2-(4-(phenoxymethyl)phenoxy)ethyl)cyclohexanaminium Iodide]",IC50 ratio to Cpd 1,[5],0.3
same,n H (Hill coefficient of inhibition),[5]; 6 μM ACh,1.7
same,IC50,"[5]; 6 μM ACh, 5 min preincubation with compound, holding potential −80 mV",0.016 µM
same,IC50 ratio to Cpd 1,[6],0.8
same,n H (Hill coefficient of inhibition),[6]; 100 μM ACh,1.5
same,IC50,"[6]; 100 μM ACh, 5 min preincubation",0.336 µM
same,EC50,[7],did not elicit any current; also recorded: lacked agonist activity; also recorded: No activity
same,IC50 ratio to Cpd 1,[8],0.1
same,n H (Hill coefficient of inhibition),[8]; 50 μM ACh,1.5
same,IC50,"[8]; 50 μM ACh, 5 min preincubation",0.0262 µM
same,Effect on the inhibitory effect of ACh on BzATP-induced IL-1β release,[3]; compound 100 pM + ACh 10 μM,efficiently antagonized the inhibitory effect of ACh
same,Effect on BzATP-induced IL-1β release in the absence of ACh,[3]; compound 100 pM,minor reduction
same,Effect on the inhibitory effect of ACh on BzATP-induced IL-1β release,[3]; compound 100 nM + ACh 10 μM,mild antagonistic effects
same,Effect on BzATP-induced IL-1β release in the absence of ACh,[3]; compound 100 nM,effectively and significantly inhibited
same,EC50,[9],failed to activate; also recorded: lacked agonist activity; also recorded: No activity
same,EC50,[10],lacked agonist activity; also recorded: No activity
"CC[C@H](C)[C@@H]1NC(=O)[C@H](CC(=O)O)NC(=O)[C@@H]2CCCN2C(=O)[C@H](CC(N)=O)NC(=O)[C@H](CC(N)=O)NC(=O)[C@H](C(C)C)NC(=O)[C@H](CO)NC(=O)[C@@H]2CSSC[C@H](NC(=O)CN)C(=O)N[C@@H](CSSC[C@@H](C(N)=O)NC1=O)C(=O)N[C@@H](CO)C(=O)N[C@@H](Cc1c[nH]cn1)C(=O)N1CCC[C@H]1C(=O)N[C@@H](C)C(=O)N2 [α-conotoxin Mr1.1] (H-GCCSHPACSVNNPDIC-NH2; disulfide 2-8, 3-16)",Hill coefficient (n H),[11],1.3
"CC[C@H](C)[C@@H]1NC(=O)[C@H](CC(=O)O)NC(=O)[C@@H]2CCCN2C(=O)[C@H](CC(N)=O)NC(=O)[C@H](CC(N)=O)NC(=O)[C@H](C(C)C)NC(=O)[C@H](CO)NC(=O)[C@@H]2CSSC[C@H](NC(=O)CN)C(=O)N[C@@H](CSSC[C@@H](C(N)=O)NC1=O)C(=O)N[C@@H](CO)C(=O)N[C@@H](Cc1cnc[nH]1)C(=O)N1CCC[C@H]1C(=O)N[C@@H](C)C(=O)N2 [α-conotoxin Mr1.1] (H-GCCSHPACSVNNPDIC-NH2; disulfide 2-8, 3-16)",IC50,[11],0.0829 µM
